Experimental data from PMC9332470, “Production and Selection of Antibody–Antigen Pairs for the Development of Immunoenzyme Assay and Lateral Flow Immunoassay Methods for Carbofuran and Its Analogues” (Biosensors, 2022).
Converted amounts (≈) assume the structure as drawn.

What was measured:
mAb 13C8 [1] = assay: quantum dot-based LFIA (QD-LFIA) with mAb 13C8; format: binding, BALB/c mice; conditions: for IC50 (QD-LFIA): optimized QD-LFIA, mAb 13C8-QD, T line antigen 30 μg/mL, given as MDA-BSA and MDA-OVA
Experimental: One milliliter of QDs was added to 9 mL of MES (0.054 M at pH 6.0) and centrifuged at 10,956× g for 20 min. Then, the precipitate was resuspended in 10 mL of MES (0.05 M at pH 6.0). After dispersion by ultrasonication for 2 min, EDC (20 mg) and NHS (20 mg) were added, and the reaction mixture was incubated for 30 min, followed by centrifugation at 10,956× g for 20 min. The precipitate was resuspended in 10 mL of MES (0.05 M at pH 6.0). Then, 1 mg of the mAb dissolved in 10 mL MES (0.027 M at pH 8.0) was added to the QD mixture and shaken at 25 °C and 180 rpm for 90 min. After the reaction, 5 mL of MES (0.054 M at pH 6.0 containing 1.6% BSA, w/v) was added, and the mixture was shaken at 25 °C and 180 rpm for 40 min, followed by centrifugation at 10,956× g for 20 min. The precipitate was resuspended in 10 mL of PB (0.01 M at pH 6.0, containing 5% casein, 1% glucose, 1.5% alanine and 0.05% NaN3, w/v) and dispersed by ultrasonication for 2 min.
The conjugate pad (6 mm × 300 mm) was pretreated with PBS (containing 0.5% Triton X-100, 0.5% alanine and 0.05% NaN3, w/v). Then, 1 mL of the mAb–QD conjugate was sprayed onto the pretreated conjugate pad at a flow rate of 10 μL/cm, and the pad was dried at 37 °C for 2 h. Other applied protocols were similar to those mentioned above.
(§1) Taking the logarithm of the carbofuran concentration as the abscissa and (B/B0)% as the ordinate, the standard curves for ELISA and QD-LFIA were obtained based on the Morgan–Mercer–Flodin (MMF) model, which were fitted by CurveExpert 1.4.0 software (https://www.curveexpert.net, accessed on 15 July 2022). For the ELISA method, B and B0 are the absorbance of the sample well and blank well, respectively. For the QD-LFIA method, B and B0 are the T/C (fluorescence intensity of the test line/fluorescence intensity of the control line) of the sample and blank control, respectively.
(§2) The inhibition ratio (I%) was calculated as (B0-B)/B0 × 100%. IC50 is the concentration of the carbofuran at an I% of 50%, and the limit of detection (LOD) was determined as the concentration showing 10% of inhibition.
(§3) The cross-reactivities (CRs) of benfuracarb, carbosulfan, 3-hydroxy-carbofuran, metolcarb, carbaryl, isoprocarb and aldicarb with carbofuran were assessed by ELISA and QD-LFIA. CR was calculated as CR (%) = [IC50 (carbofuran)/IC50 (analogues)] × 100%.
Then, to prepare QD-LFIA test strips, DDB-BSA (40 μg/mL), DDB-OVA (50 μg/mL), MDA-BSA (35 μg/mL) and MDA-OVA (30 μg/mL) were dispensed onto the NC membrane, and antibody 13C8 was conjugated to the QDs. Carbofuran standards (0, 0.05, 0.15, 0.45, 1.35 and 4.05 ng/mL) were detected to obtain a standard curve, and the IC50 was calculated. […] In LFIA, carbofuran in solution competed with the coating antigen on the NC membrane for antibody 13C8 conjugated to the QDs.
A standard curve was developed with the inhibition ratio (B/B0) versus the logarithm of the concentration of carbofuran.

mAb 13C8 [2] = assay: indirect competitive ELISA (icELISA) with mAb 13C8; format: binding, BALB/c mice; conditions: for IC50 (ELISA): optimized ELISA, mAb 13C8 0.03 μg/mL, coating antigen 0.1 μg/mL, given as MDA-BSA and MDA-OVA, unit from text
Experimental: (§4) Microplates were coated with coating antigens. Different concentrations of the standard (50 µL) and the mAb (50 µL) were added to each well, and the plates were incubated for 20 min at 37 °C. The plates were washed with PBS (0.01 M, containing 0.05% (v/v) Triton X-100), 100 μL of goat anti-mouse IgG-HRP conjugate solution was added to each well, and the plates were incubated for 20 min at 37 °C. After the plates were washed with PBS (0.01 M, containing 0.05% Triton X-100, v/v), 100 µL of TMB single-component substrate solution was added to each well, followed by incubation at 37 °C for 10 min. Finally, the reaction was terminated, and the absorbance at 450 nm was measured by a microplate reader.
as §1, §2, §3
The microplate was coated with the coating antigens DDB-BSA (1 µg/mL), DDB-OVA (0.5 µg/mL), MDA-BSA (0.2 µg/mL) and MDA-OVA (0.1 µg/mL), and the concentration of mAb 13C8 was 0.03 µg/mL. Carbofuran standards (0, 0.05, 0.15, 0.45, 1.35 and 4.05 ng/mL) were detected to obtain a standard curve, and the IC50 was calculated. […] In the icELISA used in this study, free antigen (carbofuran) in solution competed with the coating antigen on the microplate for antibody 13C8; therefore, the IC50 value was negatively correlated with the antibody-binding ability of free antigen competing with coating antigens.
The ELISA method was developed with the antibody 13C8–antigen MDA-BSA pair. Under the optimized coating antigen concentration (0.1 μg/mL), HRP-conjugated goat anti-mouse IgG concentration (1 μg/mL), antibody concentration (0.03 μg/mL) and working buffer parameters (5 mM PBS at pH 7.4), a standard curve was obtained with the concentration of carbofuran on the abscissa and the inhibition ratio (B/B0) on the ordinate.

mAb 18G3 = assay: ELISA reactivity of hybridoma supernatant, cell line 18G3; format: binding, BALB/c mice; conditions: cell line 18G3 supernatant, 50 ng/mL pesticide
Experimental: (§5) The desired antibodies with the highest affinity were screened by icELISA with carbofuran as a competitive compound, and hybridoma cells were cloned by the limited dilution method. Then, the selected hybridoma cells were injected into mice for ascites production. Finally, the mAbs were purified by (NH4)2SO4 with saturation of 50% and further purified by an SPA column.
as §4, §2
(§6) Then, the reactivity of the supernatant of the six cell lines to 50 ng/mL carbofuran, benfuracarb and carbosulfan was assessed by ELISA, and the results are shown in Table 1. […] Because 13C8 had the highest reactivity with carbofuran, benfuracarb and carbosulfan among the six cell lines, it was injected into mice for ascites production, and the mAbs were purified by a protein A column for further experiments.

mAb 6D6 = assay: ELISA reactivity of hybridoma supernatant, cell line 6D6; format: binding, BALB/c mice; conditions: cell line 6D6 supernatant, 50 ng/mL pesticide
Experimental: as §5, §4, §2, §6

mAb 12H5 = assay: ELISA reactivity of hybridoma supernatant, cell line 12H5; format: binding, BALB/c mice; conditions: cell line 12H5 supernatant, 50 ng/mL pesticide
Experimental: as §5, §4, §2, §6

mAb 13C8 [3] = assay: ELISA reactivity of hybridoma supernatant, cell line 13C8; format: binding, BALB/c mice; conditions: cell line 13C8 supernatant, 50 ng/mL pesticide
Experimental: as §5, §4, §2, §6

mAb 12D6 = assay: ELISA reactivity of hybridoma supernatant, cell line 12D6; format: binding, BALB/c mice; conditions: cell line 12D6 supernatant, 50 ng/mL pesticide
Experimental: as §5, §4, §2, §6

mAb 7F9 = assay: ELISA reactivity of hybridoma supernatant, cell line 7F9; format: binding, BALB/c mice; conditions: cell line 7F9 supernatant, 50 ng/mL pesticide
Experimental: as §5, §4, §2, §6

[4] = test system: broad-specificity mAb with the immunogen BFNB-BSA; conditions: cited from earlier work
[5] = test system: mAb with the immunogen 3-succinyl-carbofuran-KLH; conditions: cited from earlier work

| SMILES | IC50 (QD-LFIA) (mAb 13C8 [1]) | IC50 (ELISA) (mAb 13C8 [2]) | CR(%) (ic-ELISA) [4] | IC50 (ic-ELISA) [4] | also measured |
| --- | --- | --- | --- | --- | --- |
| CNC(=O)O/N=C/C(C)(C)SC [aldicarb] | >0.1 µg/mL | >0.02 µg/mL |  |  |  |
| CCOC(=O)CCN(SN(C)C(=O)Oc1cccc2c1OC(C)(C)C2)C(C)C [benfuracarb] | 0.00081 ± 7e-05 µg/mL (≈ 0.00197 µM) | 0.00023 ± 3e-05 µg/mL (≈ 0.00056 µM) |  |  | Reactivity of mAb (I%) (mAb 18G3): 76%; Reactivity of mAb (I%) (mAb 6D6): 53%; Reactivity of mAb (I%) (mAb 12H5): 70%; Reactivity of mAb (I%) (mAb 13C8 [3]): 91%; Reactivity of mAb (I%) (mAb 12D6): 55%; Reactivity of mAb (I%) (mAb 7F9): 68% |
| CCCCN(CCCC)SN(C)C(=O)Oc1cccc2c1OC(C)(C)C2 [carbosulfan] | 0.00084 ± 9e-05 µg/mL (≈ 0.00221 µM) | 0.00024 ± 4e-05 µg/mL (≈ 0.000631 µM) | 7.7% | 0.1158 µg/mL (≈ 0.304 µM) | Reactivity of mAb (I%) (mAb 18G3): 71%; Reactivity of mAb (I%) (mAb 6D6): 61%; Reactivity of mAb (I%) (mAb 12H5): 67%; Reactivity of mAb (I%) (mAb 13C8 [3]): 90%; Reactivity of mAb (I%) (mAb 12D6): 46%; Reactivity of mAb (I%) (mAb 7F9): 65% |
| CNC(=O)Oc1cccc2c1OC(C)(C)C2O (centres unmarked) [3-hydroxy-carbofuran] | 0.00087 ± 6e-05 µg/mL (≈ 0.00367 µM) | 0.00025 ± 5e-05 µg/mL (≈ 0.00105 µM) |  |  | CR(%) (ic-ELISA) [5]: 110.1%; IC50 (ic-ELISA) [5]: 0.00069 ± 8e-05 µg/mL (≈ 0.00291 µM) |
| CNC(=O)Oc1ccccc1C(C)C [isoprocarb] | >0.1 µg/mL | >0.02 µg/mL | 50.7% | 0.01768 µg/mL (≈ 0.0915 µM) | CR (%) (QD-LFIA) (mAb 13C8 [1]; CR = IC50(carbofuran)/IC50(analogue) x 100%, QD-LFIA with mAb 13C8): <1%; CR (%) (ELISA) (mAb 13C8 [2]; CR = IC50(carbofuran)/IC50(analogue) x 100%, optimized ELISA with mAb 13C8): <1% |
| CNC(=O)Oc1ccccc1OC(C)C [propoxur] |  |  | 25.8% | 0.03475 µg/mL (≈ 0.166 µM) |  |
| CNC(=O)Oc1cccc(C)c1 [metolcarb] | >0.1 µg/mL | >0.02 µg/mL |  |  |  |
| CNC(=O)Oc1cccc2ccccc12 [carbaryl] | >0.1 µg/mL | >0.02 µg/mL | 8.5% | 0.10559 µg/mL (≈ 0.525 µM) |  |
